The results in this text go back to patent US20220260574A1, “METHODS OF DETERMINING THERAPIES BASED ON SINGLE CELL CHARACTERIZATION OF CIRCULATING TUMOR CELLS (CTCS) IN METASTATIC DISEASE” (Epic Sciences, Inc., priority 2017, published 2022).

Assay [1] concerns mCRPC patients. The assay is described as follows: Carboplatin therapy in mCRPC patients with high vs low pLST baseline CTCs (PSA response). The assay is classed as in vivo, human.
Assay [2] concerns mCRPC patients.
For assay [3], the system named is mCRPC patients. Nature of the assay: Single CTC sequencing of a 2nd line post taxane patient treated with enzalutamide. The conditions noted are these: 2nd line post taxane patient with lack of clonal diversity. Format: in vivo, human.
Source text: Phlebotomy samples were obtained at a Decision Point in management: therapy was chosen by the treating physician. Standard of care collection from 221 mCRPC patients at decision points. Baseline blood draw prior to A, E or T. Followed by PSA, time on drug, radiographic progression free (rPFS) & overall survival (OS). 9225 CTCs identified and characterized phenotypically. 741 CTCs from 31 patients were studied by whole genome CNV for clonality and gene amplifications/deletions. Patients were ranked based on how heterogeneous or diverse the cells were at each decision point. […] After a CTC is phenotypically measured, the coverslip is removed and the individual CTC is aspirated and put into an individual tube. The CTCs are amplified and prepared for sequencing (FIG. 15). Following sequencing informatics were performed to assess clonality and amplification/deletions (FIG. 15). […] Each patient sample was analyzed separately. Single CTC genomic CNV plots were curated individually versus other CTCs in patient sample. Clonality was characterized based on large genomic variations and focal amplifications or deletion of known driver alterations in at least 2 CTCs, for example, two cells from same patient with or without a loss of chromosome 5q or two clones from a patient with and without AR amplification (FIG. 16).
Where [4] appears, read: one 8th line mCRPC patient with 4.3% baseline CTCs as high pLST.
Where [5] appears, read: one 10th line mCRPC patient with 96% baseline CTCs as high pLST.
Setting [6] is: patients without vs with the presence of cell type K.

Like-named read-outs stand apart in the source and are kept apart here.

With `N.N.O=C([O-])C1(C(=O)[O-])CCC1.[Pt+2]` [carboplatin], in the assay with mCRPC patients [1] (setting [4]), the “12 week PSA change” value is recorded as “+2.1%” and the “response to carboplatin therapy” value is “did not respond”. In the assay on mCRPC patients [1] (setting [5]), the “12 week PSA change” value is on record as −50.1% and the “response to carboplatin therapy” value is on record as “responded”.

Turning to `CNC(=O)c1ccc(N2C(=S)N(c3ccc(C#N)c(C(F)(F)F)c3)C(=O)C2(C)C)cc1F` [enzalutamide], in the assay with mCRPC patients [2] (all patients, Abi vs Enza), the “Time on therapy (Tx)” value is given as “similar” and the “overall survival (OS)” value is “similar”. Also, the “radiographic Progression Free Survival (rPFS)” value in the assay with mCRPC patients [2] (all patients, Enza vs Abi, p=0.025) was “significantly better”. Besides, the “HR (hazards of death, overall survival), feature Therapy” value in the assay on mCRPC patients [2] (multivariate cox model, =0 if Abi, =1 if Enza, p 0.4167) is 0.6543. Moreover, the “HR (hazards of death, overall survival), feature Cell Type K: Therapy Interaction” value in the assay on mCRPC patients [2] (multivariate cox model, =0 if not K+ and Enza, =1 if K+ and Enza, p 0.0306) amounted to 5.2792. Moreover, the “hazards of death, therapy favoured in multivariate cox proportional hazards model” value in the assay on mCRPC patients [2] (patients without the presence of cell type K) is reported as “more favorable”. The OS result in the assay with mCRPC patients [2] (patients without the presence of cell type K, Enza vs Abi) is given as “no difference”. Moreover, the rPFS entry in the assay on mCRPC patients [2] (patients without the presence of cell type K, Enza vs Abi, p=0.006) is “significantly better”. Further, in the assay with mCRPC patients [2] (setting [6]), the OS result was “significant improvement”, the “Time on Tx” value was “significant improvement” and the rPFS entry was “significant improvement”. In the assay with mCRPC patients [3], the response to therapy result is reported as “responded”.
